# Source: paper PMC8398766, “Do Small Molecules Activate the TrkB Receptor in the Same Manner as BDNF? Limitations of Published TrkB Low Molecular Agonists and Screening for Novel TrkB Orthosteric Agonists” (Pharmaceuticals, 2021)
# pKd: −log10 of the molar value. Read-outs that look alike come from different tables or passages of the source.
# Assays:
# [1] = Metabolic stability in mouse liver microsomes; settings: for Metabolic stability in MLM (classification): compared with verapamil; for Clint MLM: 1 μM, phase I
# TrkB receptor = biological target: T1, TrkB receptor (Rattus norvegicus, UniProt Q63604); test: ELFI TrkB phosphorylation, orthosteric agonist mode, SN56 T48 cell line; assay type: cell-based; settings: 0.125–100 μM, 15 min
# T1 construct: host or cells: SN56 T48 cell line
# Experimental: The SN56 T48 cell line with stable overexpression of the TrkB receptor was purchased from Emory University (Atlanta, GA, USA) and cultivated according to the protocol described in Jang et al., 2010 [12]. The cell lines were cultivated with the following reagents: DMEM High Glucose, fetal bovine serum (FBS), Penicillin-Streptomycin Solution 100×, and Trypsin-EDTA 1×; all were purchased from Biowest, and G418 was from ThermoFisher Scientific. For the ELFI experiments, cells were seeded (8000/well) on a PDL-treated 96-well plate (BioCoat™, Corning Inc., Corning, NY, USA) and 6-well plate (400,000/well) for lysate collection and immunoblot analysis.
# In the orthosteric agonist mode experiments, starved cells (5 h) were treated with compounds (0.125–100 μM; volume, 100 μL/well) or BDNF (0.01–10 nM; volume, 100 μL/well) dissolved in culture medium. In the allosteric modulation mode experiments, starved cells (5 h) were treated with final compound concentrations of 3, 10, and 30 μM; volume, 50 μL/well) in the presence of a rising concentration of BDNF (final concentration in well, 0.15–5 nM; volume, 50 μL/well). Corresponding treatment with DMSO (v/v) was performed for a control. Cells were treated for 15 min in both the orthosteric and allosteric modulation mode experiments.
# The analysis of TrkB receptor activation was performed using the ELFI method adapted from Boltayev et al. (2017) with some modifications. After compound treatment, experiments were stopped by fixing cells with 10% buffered formalin (Kolchem, Lodz, Poland) for 20 min (volume, 100 μL/well). Afterwards, cells were permeabilized with washing buffer (TBS+ 0.1% Tween20) for 15 min, and endogenous peroxidases were quenched by 20 min of incubation with 1% H2O2 dissolved in TBS (each solution: volume, 100 μL/well). Epitopes were blocked with 10% BSA (Biowest) dissolved in washing buffer for 2 h (volume, 100 μL/well) and incubated with anti-pTrkB (Tyr707) primary antibody (Cell Signaling Technology, Danvers, MA, USA) diluted in washing buffer (1:500; overnight at 4 °C; volume, 100 μL/well). After repeated washing, cells were incubated with HRP-linked anti-rabbit antibody (Cell Signaling Technology) for 2 h (1:1000; RT; volume, 100 μL/well) and washed. The cells were then incubated with 100 μL of ImmunoCruz™ Western Blotting Luminol (Santa Cruz Biotechnology, Dallas, TX, USA) for 1 min in the dark, and the signals were measured using a microplate luminometer (VICTOR Light 1420-060, PerkinElmer®, Waltham, MA, USA). For non-specific binding, cells were treated, with the exception of primary antibody.
# [2] = Chemical stability pH 7.4; assay type: physicochemical; settings: pH = 7.4, 4 h
# physchem = settings: 25 °C, pH 7.4, aqueous buffer, kinetic from dmso stock
# exTrkB = biological target: T2, exTrkB (Homo sapiens, UniProt Q16620); test: MST binding affinity (Kd) determination
# T2 construct: human TrkB receptor (exTrkB), residues 1−430, was cloned into the pCMV2 expression vector; made in house; host or cells: ExpiCHO-S cells
# Experimental: The gene encoding the extracellular domain of the human TrkB receptor (exTrkB), residues 1−430, was cloned into the pCMV2 expression vector. Protein expression was performed in suspension-cultivated mammalian ExpiCHO-S cells using the ExpiFectamine (Thermo Scientific, Thermo Fisher Scientific, Waltham, MA, USA) transfection reagent. The secreted protein was purified using a four-step protocol. Clarified culture medium was precipitated with ammonium sulfate added to a final concentration of 1.5 M and centrifuged (235,000× g, 60 min at 4 °C). The supernatant after centrifugation was applied on a HiTrap Phenyl column (GE Healthcare, Chicago, IL, USA) equilibrated with buffer A (25 mM Tris, 1 mM DTT; pH 7.5) with 1.5 M ammonium sulfate. Bound proteins were eluted with a linear gradient of buffer A. The eluted proteins were dialyzed overnight in buffer A and loaded on a CaptoQ ImpRes column (GE Healthcare) equilibrated with buffer A with 50 mM NaCl. The bound proteins were eluted with a linear gradient of buffer A with 1 M NaCl. The fractions containing exTrkB protein were pooled, and MnCl2 and CaCl2 (1mM final concentration each) were added. The sample was purified on a HiTrap Con A 4B column (GE Healthcare) equilibrated with buffer B (25 mM Tris, 0.5 M NaCl, 1 mM MnCl2, 1 mM CaCl2; pH 7.5) and eluted with buffer C (25 mM Tris, 0.1 M NaCl, 0.4 M α-D-glucopyranoside; pH 6.5). To improve the protein recovery, buffer C flow was paused nine times during elution. The eluted fractions were concentrated and purified by size-exclusion chromatography on a HiLoad 16/600 Superdex 200 column (GE Healthcare) in buffer A with 0.5 M NaCl. The protein samples were concentrated to 1 mg/mL, and buffer was exchanged (PBS; pH 7.4). Samples were frozen in liquid nitrogen and stored at −80 °C. The protein purity was estimated by SDS–PAGE followed by Coomassie Brilliant Blue staining. The protein concentration was determined from the absorption at 280 nm using an UV NanoDrop 1000 spectrophotometer (Thermo Scientific).
# The exTrkB was labeled with a Monolith Protein Labeling Kit RED-NHS 2nd Generation (NanoTemper Technologies GmbH, Munich, Germany) according to the manufacturer’s protocol. The labelling efficiency was always determined spectrophotometrically with NanoPhotometer® NP80 (Impel) in line with the manufacturer’s recommendations. Labelled exTrkB protein was aliquoted and stored at −80 °C to avoid repeated freeze–thaw cycles. Before analysis, the exTrkB protein was thawed on ice and diluted with MST buffer (50 mM Tris pH = 8; 150 mM NaCl; 10 mM MgCl2; 0.1% Tween20) to the desired concentration.
# For primary screening (single-point MST experiments for signal amplitude determination), each of the 987 screened compounds were diluted in MST buffer + 0.1% Tween20 to a final concentration of 0.5 mM. The tested compounds were mixed with exTrkB solution (the final concentration of exTrkB was 20 nM) and centrifuged (10,000× g, 4 min at 4 °C) to eliminate protein and compound aggregates. Before loading to capillaries (Monolith NT.115 Capillaries, NanoTemper Technologies GmbH), the samples were incubated for 5 min at 25 °C and then placed into the MST apparatus (Monolith, NanoTemper Technologies GmbH). The experiments were performed using nano-blue excitation, LED light adjusted to 20% excitation power, and MST power set to medium, and the fluorescence signal during thermophoresis was detected after 30 s. Single-point MST experiments were performed by the determination of the amplitude signal between the unbound and bound state between the molecule and exTrkB, which was analyzed using the MO.Control Software version 1.6 (NanoTemper Technologies GmbH). A reference sample containing only exTrkB and the equivalent DMSO concentration (v/v) was included in each individual MST experiment. At least three technical replicates were prepared for each of the tested compounds. A binding affinity study was performed for 113 of the selected compounds at 16 concentration points. […]
# [3] = Metabolic stability in human liver microsomes; settings: for Metabolic stability in HLM (classification): compared with verapamil; for Clint HLM: 1 μM, phase I
# [4] = Caco-2 passive permeability; settings: human, Caco-2, with 5 μM elacridar and 20 μM cyclosporine A
# PAMPA = settings: for PAMPA: 10 μM, 4 h
# [5] = Kinetic solubility (shake-flask); settings: pH 7.4, 4 h, 25 °C
# Caco-2 monolayer = test: Caco-2 passive permeability; settings: 2 h; for Papp,BA: Caco-2, basal to apical; for Papp,AB: Caco-2, apical to basal
# [6] = biological target: extracellular domain of the human TrkB receptor (exTrkB), residues 1-430 (human) (UniProt Q16620); test: MST; exTrkB labelled with RED-NHS, 20 nM; ligand titrated at 16 concentration points; MST buffer (50 mM Tris pH 8, 150 mM NaCl, 10 mM MgCl2, 0.1% Tween20); 5 min at 25 °C before loading; Kd binding model
# [7] = biological target: extracellular domain of the human TrkB receptor (exTrkB), residues 1-430 (human) (UniProt Q16620)
# [8] = pH 7.4
# T1 sequence (Q63604 32-821): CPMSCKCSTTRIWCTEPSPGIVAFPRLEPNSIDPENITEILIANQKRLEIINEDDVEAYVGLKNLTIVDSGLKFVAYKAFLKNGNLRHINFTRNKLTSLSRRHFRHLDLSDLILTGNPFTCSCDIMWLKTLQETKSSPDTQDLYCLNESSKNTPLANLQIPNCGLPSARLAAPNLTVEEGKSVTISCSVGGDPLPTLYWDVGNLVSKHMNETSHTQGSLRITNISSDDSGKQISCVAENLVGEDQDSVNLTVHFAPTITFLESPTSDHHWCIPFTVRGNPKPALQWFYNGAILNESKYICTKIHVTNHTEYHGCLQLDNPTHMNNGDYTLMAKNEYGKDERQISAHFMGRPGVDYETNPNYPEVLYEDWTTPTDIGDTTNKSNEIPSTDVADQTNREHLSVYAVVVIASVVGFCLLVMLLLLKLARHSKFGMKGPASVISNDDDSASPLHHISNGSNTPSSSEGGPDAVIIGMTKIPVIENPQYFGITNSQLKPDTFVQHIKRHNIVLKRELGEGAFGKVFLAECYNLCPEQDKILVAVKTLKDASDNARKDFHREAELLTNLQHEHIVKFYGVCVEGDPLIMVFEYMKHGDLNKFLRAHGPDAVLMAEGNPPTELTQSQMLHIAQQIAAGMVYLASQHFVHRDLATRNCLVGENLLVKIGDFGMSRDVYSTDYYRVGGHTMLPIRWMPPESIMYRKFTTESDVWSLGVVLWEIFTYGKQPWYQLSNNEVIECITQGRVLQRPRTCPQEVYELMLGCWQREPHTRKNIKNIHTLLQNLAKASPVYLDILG
# T2 sequence (Q16620 32-430): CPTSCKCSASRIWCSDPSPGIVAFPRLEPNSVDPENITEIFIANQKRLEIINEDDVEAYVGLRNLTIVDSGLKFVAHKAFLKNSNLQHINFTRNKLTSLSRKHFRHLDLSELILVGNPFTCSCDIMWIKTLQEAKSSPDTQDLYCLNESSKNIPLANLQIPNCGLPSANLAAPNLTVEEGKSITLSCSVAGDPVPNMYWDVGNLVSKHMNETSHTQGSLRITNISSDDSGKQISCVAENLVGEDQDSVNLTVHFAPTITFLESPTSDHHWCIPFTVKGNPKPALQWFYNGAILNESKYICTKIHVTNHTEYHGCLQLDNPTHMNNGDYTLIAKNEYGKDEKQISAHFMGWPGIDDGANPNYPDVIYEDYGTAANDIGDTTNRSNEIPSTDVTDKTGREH
# Chain of extracellular domain of the human TrkB receptor (exTrkB), residues 1-430 (human) (Q16620 32-430): as above
Metabolic stability in MLM (classification) [1],"microsomal CLint at 1 μM ([1]; mouse, liver microsomes)",Orthosteric activity (induction of TrkB phosphorylation) (TrkB receptor),Chemical Stability [% of Degradation] [2],solubility kinetic at 4 h (physchem),Binding to the exTrkB receptor (exTrkB),Metabolic stability in HLM (classification) [3],"microsomal CLint at 1 μM ([3]; human, liver microsomes)",Papp A→B at 2 h [4],Papp B→A at 2 h [4],"Papp at 4 h, 10 μM (PAMPA; PAMPA, pH 7.4)",Kinetic Solubility [5],Clint HLM [3],"Papp,BA (Caco-2 monolayer)",PAMPA (PAMPA),pKd [6],"EC50 of TrkB phosphorylation (Y706) by enzyme-linked fixed-cell immunoassay (ELFI) in SN56 T48 cells overexpressing TrkB; BDNF 0.01-10 nM, 15 min [7]",Clint MLM [1],"Papp,AB (Caco-2 monolayer)",Kinetic Solubility [8],Molecule
very good metabolic stability,,did not observe any orthosteric activity,Stable,,not observed,very good metabolic stability,,,,,397 µM,3.7 μL·min^−1·mgprotein^−1,0.12 10^−6·cm/s,0.01 10^−6·cm/s,,,,,,O=C(NCCO)c1cc(C(=O)NCCO)cc(C(=O)NCCO)c1 [LM22-A4]
very good metabolic stability,,did not observe any orthosteric activity,Stable,,not observed,very good metabolic stability,,,,,,,2.29 10^−6·cm/s,1.24 10^−6·cm/s,,,2.1 μL·min^−1·mgprotein^−1,1.11 10^−6·cm/s,437 µM,O=C1NCCCC1C(=O)NCCc1c[nH]c2ccc(O)cc12 (stereo not shown) [HIOC]
very good metabolic stability,,did not observe any orthosteric activity,Stable,,not observed,very good metabolic stability,,,,,404 µM,0.3 μL·min^−1·mgprotein^−1,8.00 10^−6·cm/s,<0.01 10^−6·cm/s,,,1.5 μL·min^−1·mgprotein^−1,8.86 10^−6·cm/s,,"CC(=O)NCCc1c[nH]c2ccc(O)cc12 [NAS, N-acetylserotonin]"

# More lines, now with the values behind:
Molecule,Metabolic stability in MLM (classification) [1],"microsomal CLint at 1 μM ([1]; mouse, liver microsomes)",Orthosteric activity (induction of TrkB phosphorylation) (TrkB receptor),Chemical Stability [% of Degradation] [2],solubility kinetic at 4 h (physchem),Binding to the exTrkB receptor (exTrkB),Metabolic stability in HLM (classification) [3],"microsomal CLint at 1 μM ([3]; human, liver microsomes)",Papp A→B at 2 h [4],Papp B→A at 2 h [4],"Papp at 4 h, 10 μM (PAMPA; PAMPA, pH 7.4)",Kinetic Solubility [5],Clint HLM [3],"Papp,BA (Caco-2 monolayer)",PAMPA (PAMPA),pKd [6],"EC50 of TrkB phosphorylation (Y706) by enzyme-linked fixed-cell immunoassay (ELFI) in SN56 T48 cells overexpressing TrkB; BDNF 0.01-10 nM, 15 min [7]",Clint MLM [1],"Papp,AB (Caco-2 monolayer)",Kinetic Solubility [8]
"O=c1cc(-c2cccc(O)c2)oc2c(O)c(O)ccc12 [7,8,3′-THF, 7,8,3′-trihydroxyflavone]",moderate degradation rate,26.6 µL/min/mg,did not observe any orthosteric activity,Stable,168 µM,not observed,moderate degradation rate,49.4 µL/min/mg,3 ×10⁻⁶ cm/s,11.1 ×10⁻⁶ cm/s,1.1 ×10⁻⁶ cm/s,,,,,,,,,
Brain-derived neurotrophic factor (ligand),,,,,,,,,,,,,,,,7.03,4 nM,,,
